According to PubChem BioAssay (NCI):
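Growth conditions: 96-well plates. Treatment: test compound, 48 hours, 5 concentrations. Analysis: linear interpolation between bracketing concentrations; unreached endpoints set to highest concentration. Here, GI50 denotes the concentration required for 50% inhibition of growth. TGI: total growth inhibition.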

Columns and labels:
Experiment in all cases: DTP human tumour cell line panel, 48 h
[1] = test system: HCC-2998 colon
[2] = test system: SK-OV-3 ovarian
[3] = test system: U251 CNS
[4] = test system: BT-549 breast
[5] = test system: A549 NSCLC
[6] = test system: MDA-MB-231 breast
[7] = test system: A498 renal
[8] = test system: M14 melanoma
[9] = test system: MOLT-4 leukemia
[10] = test system: OVCAR-3 ovarian

Row | Compound | GI50 [1] [µM] | TGI [1] [µM] | GI50 [2] [µM] | TGI [2] [µM] | GI50 [3] [µM] | TGI [3] [µM] | GI50 [4] [µM] | TGI [4] [µM] | GI50 [5] [µM] | TGI [5] [µM] | GI50 [6] [µM] | TGI [6] [µM] | GI50 [7] [µM] | TGI [7] [µM] | GI50 [8] [µM] | TGI [8] [µM] | GI50 [9] [µM] | TGI [9] [µM] | GI50 [10] [µM] | TGI [10] [µM]
1 | N/C(=N\OC(=O)c1ccccc1)C(Cc1ccccc1)C(=O)NOC(=O)c1ccccc1 (stereo not given) | 5.4 | 19.7 | 5.48 | 18.2 | 1.36 | 2.87 | 4.26 | 16.5 | 1.52 | 3.22 | 4.6 | 18.1 | 11 | 23.2 | 3.12 | 10.8 | 2.21 | 5.85 | 1.8 | 4.1
2 | CCOC(=O)c1cc2c(cc1Cl)SC(=Nc1ccccc1)N(S(=O)(=O)c1ccc(Br)s1)S2(=O)=O | 16.7 | 31.6 | 34.5 | > 100 | 11.7 | 25.8 | 17.3 | 34.8 | 21.4 | 53.8 | 14.1 | 30.6 | 16.2 | 34 | 15.2 | 35 | 4.37 | 17.9 | 12.2 | 24.7
3 | C[n+]1c2ccccc2nc2c(N)cc(N)cc21 | 12.6 | 93.2 | 25.8 | > 100 | 2.5 | > 100 | 2.62 | 12.5 | 14.1 | > 100 | 21.7 | > 100 | 69.2 | > 100 | 19.1 | 76.3 | 3 | 22.6 | 3.69 | 22.8
4 | COC(=O)c1cc(-c2ccc(OC)c(OC)c2)[nH]c1N/N=C/c1c(Cl)cccc1Cl | 0.265 | 1.43 | 0.567 | 2.66 | 0.671 | 2.43 | 0.887 | 3.48 | 0.948 | 8.28 | 1.31 | 5.03 | 0.532 | 3.8 | 0.523 | 5.2 | 0.68 | > 100 | 0.366 | 1.87
5 | COc1ccc2c(c1)C(=O)c1c-2c(OCCN(C)C)nc2ccccc12 | 3.89 | 14.5 | 4.87 | 35.3 | 2.28 | 9.87 | 12 | 26 | 1.33 | 4.54 | 4.02 | 20.8 | 1.87 | 10.7 | 3.85 | 15 | 0.524 | 5.64 | 2.48 | 7.01
6 | O=C(NNS(=O)(=O)c1ccc(Cl)cc1Cl)c1cccnc1Nc1ccc(Cl)cc1 | 13.6 | 29 | 17.1 | 52.4 | 34.4 | > 100 | 16.8 | 35 | 24.4 | 70.1 | 19 | 50.7 | 25 | 47.9 | 19 | 38.7 | 19.6 | 58.2 | 20.6 | > 100
7 | O=C(O)c1ccccc1NC(=S)c1ccccc1 |  | 0.0159 |  | > 100 |  | > 100 |  | > 100 |  | > 100 |  | > 100 |  | > 100 |  | > 100 |  | > 100 |  | > 100
8 | COc1cccc(Oc2ccccc2NC(=O)CNC(=O)c2cccc3ccccc23)c1 | 1.25 | > 25 | 0.494 | 12.3 | 0.242 | > 25 | 0.298 | 10.2 | 0.315 | > 25 | 0.776 | 7.68 | 0.115 | 2.11 | 0.157 | > 25 | 0.654 | > 25 | 0.0999 | 1.25
